This experiment deals with T1, Siglec-2 (CD22) (Homo sapiens, UniProt P20273).
T1 sequence (P20273 20-847): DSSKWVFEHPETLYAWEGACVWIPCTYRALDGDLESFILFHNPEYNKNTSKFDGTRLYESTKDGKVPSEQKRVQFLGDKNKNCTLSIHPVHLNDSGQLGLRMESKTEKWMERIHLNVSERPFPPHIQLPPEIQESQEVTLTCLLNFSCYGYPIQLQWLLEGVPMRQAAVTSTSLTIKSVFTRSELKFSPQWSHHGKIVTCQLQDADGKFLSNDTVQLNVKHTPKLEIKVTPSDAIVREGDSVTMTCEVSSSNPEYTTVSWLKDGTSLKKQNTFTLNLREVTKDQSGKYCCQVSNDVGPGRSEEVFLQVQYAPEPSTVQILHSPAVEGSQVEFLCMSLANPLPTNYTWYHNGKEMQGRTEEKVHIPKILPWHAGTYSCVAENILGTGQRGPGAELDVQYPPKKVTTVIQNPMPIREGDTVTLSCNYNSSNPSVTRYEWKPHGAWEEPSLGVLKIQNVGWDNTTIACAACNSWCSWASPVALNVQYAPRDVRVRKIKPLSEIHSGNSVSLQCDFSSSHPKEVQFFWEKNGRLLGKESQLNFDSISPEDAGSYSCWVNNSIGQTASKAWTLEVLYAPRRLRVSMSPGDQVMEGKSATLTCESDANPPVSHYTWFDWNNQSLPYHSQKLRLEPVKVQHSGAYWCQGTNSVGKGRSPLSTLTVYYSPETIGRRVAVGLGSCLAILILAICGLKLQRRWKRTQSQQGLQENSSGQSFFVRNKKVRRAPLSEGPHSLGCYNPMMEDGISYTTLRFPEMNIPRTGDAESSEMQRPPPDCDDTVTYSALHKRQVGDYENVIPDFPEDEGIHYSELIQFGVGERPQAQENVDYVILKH
The experiment is described as follows: new affinity assay: displacement of biotinylated compound 155 from sialidase-treated Daudi cells, FACS with streptavidin-PE. In kind it is binding. The arrangement: endogenous in cells; host or cells: Daudi (human B-cell lymphoma line). To be noted: Table II; rIP values set relative to compound 38; Daudi cells, displacement of compound 155. The method, then: To determine the affinity of the compound of the formula (I), approximately 5×10^6 to 2×10^8 cells of the human B-cell lymphoma line “Daudi” were incubated with sialidase (A. ureafaciens) at 37° C. for 1 h (final concentration 0.1 unit/ml). […] Batches of 1-2×10^6 cells were transferred to sample vessels, and incubated on ice for 15 min with serial concentrations (10-fold dilutions, 1 mM to 1×10^−7 mM) of the substance under measurement (inhibitor). The reaction volume was 50 μl. Then 50 microliters of compound 155 (4-micromolar) were added, and incubation took place for 20 min Washing with FACS buffer (PBS, 0.1 BSA, 0.01% sodium azide) was followed by incubation with streptavidin-PE in the dark for 15 min, followed by washing and measurement of the bound amount of […] via the streptavidin-PE in the FACS. For the determination of 0% displacement of the compound 155, cells without inhibitor were measured. For the determination of 100% displacement, cells were measured without compound 155 and without inhibitor. For each assay, four substances and one reference were measured. The IC50 values determined in each assay were subsequently converted into values of rIP (relative Inhibitory Potency). […]
The molecule `CC(=O)N[C@H]1[C@H]([C@H](O)[C@H](O)CNC(=O)c2ccc(-c3ccccc3)cc2)O[C@@](OCCCSCCC(=O)Nc2cccc(NC(=O)CCSCCCO[C@]3(C(=O)[O-])C[C@H](O)[C@@H](NC(C)=O)[C@H]([C@H](O)[C@H](O)CNC(=O)c4ccc(-c5ccccc5)cc4)O3)c2)(C(=O)[O-])C[C@@H]1O.[Na+].[Na+]` [Compound 41] gave a rIP of 423.
`CC(=O)N[C@H]1[C@H]([C@H](O)[C@H](O)CNC(=O)c2ccc(-c3ccccc3)cc2)O[C@@](OCCCSCCNC(=O)CC(=O)NCCSCCCO[C@]2(C(=O)[O-])C[C@H](O)[C@@H](NC(C)=O)[C@H]([C@H](O)[C@H](O)CNC(=O)c3ccc(-c4ccccc4)cc3)O2)(C(=O)[O-])C[C@@H]1O.[Na+].[Na+]` [Compound 37] had a rIP of 177.
In turn, `CC(=O)N[C@H]1[C@H]([C@H](O)[C@H](O)CNC(=O)c2ccc(-c3ccccc3)cc2)O[C@@](OCCCSCCC(=O)NCCCCCCNC(=O)CCSCCCO[C@]2(C(=O)[O-])C[C@H](O)[C@@H](NC(C)=O)[C@H]([C@H](O)[C@H](O)CNC(=O)c3ccc(-c4ccccc4)cc3)O2)(C(=O)[O-])C[C@@H]1O.[Na+].[Na+]` [Compound 43] showed a rIP of 15.
The molecule `CC(=O)N[C@H]1[C@H]([C@H](O)[C@H](O)CNCc2ccc(-c3ccccc3)cc2)O[C@@](OCCCSCCNC(=O)c2ccc(C(=O)NCCSCCCO[C@]3(C(=O)[O-])C[C@H](O)[C@@H](NC(C)=O)[C@H]([C@H](O)[C@H](O)CNCc4ccc(-c5ccccc5)cc4)O3)cc2)(C(=O)[O-])C[C@@H]1O.[Na+].[Na+]` [Compound 85] gave a rIP of 1.
The value for `CC(=O)N[C@H]1[C@H]([C@H](O)[C@H](O)CNC(=O)c2ccc(-c3ccccc3)cc2)O[C@@](OCCCSCCNC(=O)CCC(=O)NCCSCCCO[C@]2(C(=O)[O-])C[C@H](O)[C@@H](NC(C)=O)[C@H]([C@H](O)[C@H](O)CNC(=O)c3ccc(-c4ccccc4)cc3)O2)(C(=O)[O-])C[C@@H]1O.[Na+].[Na+]` [Compound 36] was 23.
Molecule `CC(=O)N[C@H]1[C@H]([C@H](O)[C@H](O)CNC(=O)c2ccc(-c3ccccc3)s2)O[C@@](OCCCSCCNC(=O)c2ccc(C(=O)NCCSCCCO[C@]3(C(=O)[O-])C[C@H](O)[C@@H](NC(C)=O)[C@H]([C@H](O)[C@H](O)CNC(=O)c4ccc(-c5ccccc5)s4)O3)cc2)(C(=O)[O-])C[C@@H]1O.[Na+].[Na+]` [Compound 65] had a rIP of 106.
Molecule `CC(=O)N[C@H]1[C@H]([C@H](O)[C@H](O)CNC(=O)c2ccc(-c3cccs3)cc2)O[C@@](OCCCSCCNC(=O)c2ccc(C(=O)NCCSCCCO[C@]3(C(=O)[O-])C[C@H](O)[C@@H](NC(C)=O)[C@H]([C@H](O)[C@H](O)CNC(=O)c4ccc(-c5cccs5)cc4)O3)cc2)(C(=O)[O-])C[C@@H]1O.[Na+].[Na+]` [Compound 80] displayed a rIP of 14342.
`CC(=O)N[C@H]1[C@H]([C@H](O)[C@H](O)Cn2cc(-c3ccccc3)nn2)O[C@@](OCCCSCCNC(=O)c2ccc(C(=O)NCCSCCCO[C@]3(C(=O)[O-])C[C@H](O)[C@@H](NC(C)=O)[C@H]([C@H](O)[C@H](O)Cn4cc(-c5ccccc5)nn4)O3)cc2)(C(=O)[O-])C[C@@H]1O.[Na+].[Na+]` [Compound 95] came in with a rIP of 6.
As for `CC(=O)N[C@H]1[C@H]([C@H](O)[C@H](O)CNC(=O)c2ccc(-c3ccccc3)cc2)O[C@@](OCCCSCCNC(=O)c2ccc(C(=O)NCCSCCCO[C@]3(C(=O)[O-])C[C@H](O)[C@@H](NC(C)=O)[C@H]([C@H](O)[C@H](O)CNC(=O)c4ccc(-c5ccccc5)cc4)O3)s2)(C(=O)[O-])C[C@@H]1O.[Na+].[Na+]` [Compound 29], the rIP worked out at 2061.
In turn, `CC(=O)N[C@H]1[C@H]([C@H](O)[C@H](O)CNC(=O)/C=C/c2ccccc2)O[C@@](OCCCSCCNC(=O)c2ccc(C(=O)NCCSCCCO[C@]3(C(=O)[O-])C[C@H](O)[C@@H](NC(C)=O)[C@H]([C@H](O)[C@H](O)CNC(=O)/C=C/c4ccccc4)O3)cc2)(C(=O)[O-])C[C@@H]1O.[Na+].[Na+]` [Compound 83] came in with a rIP of 73.
As for `CC(=O)N[C@H]1[C@H]([C@H](O)[C@H](O)CNC(=O)c2ccc(-c3ccccc3)cc2)O[C@@](OCCCSCCC(=O)Nc2c(C)c(C)c(NC(=O)CCSCCCO[C@]3(C(=O)[O-])C[C@H](O)[C@@H](NC(C)=O)[C@H]([C@H](O)[C@H](O)CNC(=O)c4ccc(-c5ccccc5)cc4)O3)c(C)c2C)(C(=O)[O-])C[C@@H]1O.[Na+].[Na+]` [Compound 45], the rIP is recorded as 523.
Molecule `CC(=O)Nc1ccc(C(=O)NC[C@@H](O)[C@@H](O)[C@@H]2O[C@@](OCCCSCCNC(=O)c3ccc(C(=O)NCCSCCCO[C@]4(C(=O)[O-])C[C@H](O)[C@@H](NC(C)=O)[C@H]([C@H](O)[C@H](O)CNC(=O)c5ccc(NC(C)=O)cc5)O4)cc3)(C(=O)[O-])C[C@H](O)[C@H]2NC(C)=O)cc1.[Na+].[Na+]` [Compound 73] showed a rIP of 13.
For `CC(=O)N[C@H]1[C@H]([C@H](O)[C@H](O)CNC(=O)c2ccc(-c3ccccc3)cc2)O[C@@](OCCCSCCNC(=O)Cc2ccc(CC(=O)NCCSCCCO[C@]3(C(=O)[O-])C[C@H](O)[C@@H](NC(C)=O)[C@H]([C@H](O)[C@H](O)CNC(=O)c4ccc(-c5ccccc5)cc4)O3)cc2)(C(=O)[O-])C[C@@H]1O.[Na+].[Na+]` [Compound 28], the rIP stood at 129.
The molecule `CC(=O)N[C@H]1[C@H]([C@H](O)[C@H](O)CNC(=O)c2ccc(-c3ccccc3Cl)cc2)O[C@@](OCCCSCCNC(=O)c2ccc(C(=O)NCCSCCCO[C@]3(C(=O)[O-])C[C@H](O)[C@@H](NC(C)=O)[C@H]([C@H](O)[C@H](O)CNC(=O)c4ccc(-c5ccccc5Cl)cc4)O3)cc2)(C(=O)[O-])C[C@@H]1O.[Na+].[Na+]` [Compound 75] had a rIP of 3210.
`CC(=O)N[C@H]1[C@H]([C@H](O)[C@H](O)CNC(=O)c2ccc(C(F)(F)F)cc2)O[C@@](OCCCSCCNC(=O)c2ccc(C(=O)NCCSCCCO[C@]3(C(=O)[O-])C[C@H](O)[C@@H](NC(C)=O)[C@H]([C@H](O)[C@H](O)CNC(=O)c4ccc(C(F)(F)F)cc4)O3)cc2)(C(=O)[O-])C[C@@H]1O.[Na+].[Na+]` [Compound 71] returned a rIP of 32.
Next, `CC(=O)N[C@H]1[C@H]([C@H](O)[C@H](O)CNC(=O)c2ccc(-c3ccc(O)cc3)cc2)O[C@@](OCCCSCCNC(=O)c2ccc(C(=O)NCCSCCCO[C@]3(C(=O)[O-])C[C@H](O)[C@@H](NC(C)=O)[C@H]([C@H](O)[C@H](O)CNC(=O)c4ccc(-c5ccc(O)cc5)cc4)O3)cc2)(C(=O)[O-])C[C@@H]1O.[Na+].[Na+]` [Compound 67]: 1959; `CC(=O)N[C@H]1[C@H]([C@H](O)[C@H](O)CNC(=O)c2ccc(-c3ccccc3)cc2)O[C@@](OCCCSCCNC(=O)c2ccc(C(=O)NCCSCCCO[C@]3(C(=O)[O-])C[C@H](O)[C@@H](NC(C)=O)[C@H]([C@H](O)[C@H](O)CNC(=O)c4ccc(-c5ccccc5)cc4)O3)cc2)(C(=O)[O-])C[C@@H]1OC(=O)c1ccccc1.[Na+].[Na+]` [Compound 147]: 32069; `CC(=O)N[C@H]1[C@H]([C@H](O)[C@H](O)CNC(=O)c2ccc(-c3ccccc3)cc2)O[C@@](OCCCSCCC(=O)Nc2ccccc2NC(=O)CCSCCCO[C@]2(C(=O)[O-])C[C@H](O)[C@@H](NC(C)=O)[C@H]([C@H](O)[C@H](O)CNC(=O)c3ccc(-c4ccccc4)cc3)O2)(C(=O)[O-])C[C@@H]1O.[Na+].[Na+]` [Compound 42]: 359.
Take `CC(=O)N[C@H]1[C@H]([C@H](O)[C@H](O)CNC(=O)c2ccc(-c3ccccc3)cc2)O[C@@](OCC(=O)NCCCC(=O)Nc2ccc(NC(=O)CCCNC(=O)CO[C@]3(C(=O)[O-])C[C@H](O)[C@@H](NC(C)=O)[C@H]([C@H](O)[C@H](O)CNC(=O)c4ccc(-c5ccccc5)cc4)O3)cc2)(C(=O)[O-])C[C@@H]1O.[Na+].[Na+]` [Compound 90]: the rIP is listed as 1445.
`CC(=O)N[C@H]1[C@H]([C@H](O)[C@H](O)CNC(=O)c2ccc(-c3ccccc3)cc2)O[C@@](OCCCSCCNC(=O)C#CC(=O)NCCSCCCO[C@]2(C(=O)[O-])C[C@H](O)[C@@H](NC(C)=O)[C@H]([C@H](O)[C@H](O)CNC(=O)c3ccc(-c4ccccc4)cc3)O2)(C(=O)[O-])C[C@@H]1O.[Na+].[Na+]` [Compound 25] gave a rIP of 4944.

(Values after patent US9260467B2, “Sialic acid dimers” (priority 2011, dated 2016).)
